According to PMC12217474 (Antimicrobial Agents and Chemotherapy, 2025):
Like-named read-outs stand apart in the source and are kept apart here.

Legend:
[1] = for ELF AUC0-24 / Plasma AUC0-24: steady state, healthy subjects, Study I6424-108a, N = 20
Text: (§1) By fixing the plasma PK parameters to the individual post hoc values, it was possible to predict ELF concentrations using a biophase model with unidirectional first-order transfer from the central compartment to ELF (k13) and first-order elimination from the ELF compartment (k30). In order to allow for the estimation of IIV in k30, since only one ELF measurement was collected per subject, the residual variability of ELF data was fixed to be equal to that previously estimated for the plasma PK data in healthy subjects from Phases 1 and 4 studies. […] In this simulation, the parameter estimates from the modified final population PK model were utilized along with the mean (standard deviation) of the subject covariate effects in the model, such as age and body weight from healthy subjects in Study I6424-108a.

clinical = conditions: human, iv, 10 mg/kg; for Kp uu: epithelial lining fluid (ELF) / plasma; for Kp: epithelial lining fluid (ELF) versus total-drug plasma, ELF penetration ratio (total drug)
Text: as §1

[2] = cited from earlier work
[3] = final population PK model, final estimate

## CCCCCCCCCCNCCN[C@@]1(C)C[C@H](O[C@H]2[C@H](Oc3c4cc5cc3Oc3ccc(cc3Cl)[C@@H](O)[C@@H](NC(=O)[C@@H](CC(C)C)NC)C(=O)N[C@@H](CC(N)=O)C(=O)N[C@H]5C(=O)N[C@H]3C(=O)N[C@H](C(=O)N[C@H](C(=O)O)c5cc(O)c(CNCP(=O)(O)O)c(O)c5-c5cc3ccc5O)[C@H](O)c3ccc(c(Cl)c3)O4)O[C@H](CO)[C@@H](O)[C@@H]2O)O[C@@H](C)[C@H]1O [telavancin]
Bootstrap (N = 200), mean
  CLDL (dialysis clearance): 1.79 L/h
  CLR, max (maximum renal clearance): 1.04 L/h
  CLd coefficient (distributional clearance between central and peripheral compartments): 3.78 L/h
  Vc-TBW power: 0.438
  Vc-age power: 0.184
  Vc-increase for CKD5 subjects after >48 hours has elapsed between IHD sessions: 1.57 L
  Vc-proportional increase for bacteremia/HABP/VABP patients: 0.600
  Vc-proportional increase for cSSSI patients: 0.299
  Vc-proportional increase for females: −0.0583
  Vp-BMI power: −0.325
  Vp-TBW power: 0.971
  Vp-age power: 0.289
  Vp-proportional increase for bacteremia/HABP/VABP patients: 0.288
  Vp-proportional increase for cSSSI patients: 0.127
Bootstrap (N = 200), median
  CLDL (dialysis clearance): 1.77 L/h
  CLR, max (maximum renal clearance): 1.04 L/h
  CLd coefficient (distributional clearance between central and peripheral compartments): 3.75 L/h
  Vc-TBW power: 0.442
  Vc-age power: 0.183
  Vc-increase for CKD5 subjects after >48 hours has elapsed between IHD sessions: 1.56 L
  Vc-proportional increase for bacteremia/HABP/VABP patients: 0.599
  Vc-proportional increase for cSSSI patients: 0.300
  Vc-proportional increase for females: −0.0577
  Vp-BMI power: −0.317
  Vp-TBW power: 0.969
  Vp-age power: 0.289
  Vp-proportional increase for bacteremia/HABP/VABP patients: 0.295
  Vp-proportional increase for cSSSI patients: 0.125
Bootstrap of final population PK model (N = 200), mean
  CLNR (non-renal clearance): 0.399 L/h
Bootstrap of final population PK model (N = 200), median
  CLNR (non-renal clearance): 0.402 L/h
[3]
  Vc-TBW power: 0.469
  Vc-age power: 0.188
  Vc-proportional increase for bacteremia/HABP/VABP patients: 0.578
  Vc-proportional increase for cSSSI patients: 0.313
  Vc-proportional increase for females: −0.0584
  Vp-BMI power: −0.308
  Vp-TBW power: 0.976
  Vp-age power: 0.272
  Vp-proportional increase for bacteremia/HABP/VABP patients: 0.329
  Vp-proportional increase for cSSSI patients: 0.118
Final population PK model, final estimate, Hill-type CLR-CLcr relationship, N = 1,205
  CLR, max (maximum renal clearance): 1.04 L/h
Final population PK model, final estimate, N = 1,205
  CLd coefficient (distributional clearance between central and peripheral compartments): 3.73 L/h
Final population PK model, final estimate, additive increase
  Vc-increase for CKD5 subjects after >48 hours has elapsed between IHD sessions: 1.55 L
Final population PK model, final estimate, during active intermittent hemodialysis, eight CKD5 subjects
  CLDL (dialysis clearance): 1.77 L/h
Final population PK model, final estimate, plasma, IV, healthy subjects and patients, N = 1,205
  CLNR (non-renal clearance): 0.407 L/h
[1]; ELF population PK model, final estimate, 18 healthy subjects
  k30 (first-order elimination from the ELF compartment): 0.154 h⁻¹
[1]; 10 mg/kg IV q24h, urea-corrected BAL, mean (SD), SD
  ELF AUC0-24: 54.5 (16.1) mg·hour/L
[1]; 10 mg/kg IV q24h, maximum
  ELF AUC0-24: 99.0 mg·h/L
  Plasma AUC0-24: 954 mg·h/L
[1]; 10 mg/kg IV q24h, median
  ELF AUC0-24: 50.6 mg·h/L
  Plasma AUC0-24: 757 mg·h/L
[1]; 10 mg/kg IV q24h, minimum
  ELF AUC0-24: 38.3 mg·h/L
  Plasma AUC0-24: 570 mg·h/L
[1]; 10 mg/kg IV q24h for 3 days, mean (SD), SD
  Plasma AUC0-24: 750 (103) mg·hour/L
clinical; ELF penetration ratio (free drug), ELF AUC0-24/(0.1 total-drug plasma AUC0-24), median, N = 20
  Kp uu: 0.683
clinical; SD
  Kp uu: 0.73
clinical; ELF AUC0-24/total-drug plasma AUC0-24, healthy subjects, Study I6424-108a, mean (SD), N = 20, SD
  Kp: 0.073
clinical; ELF AUC0-24/total-drug plasma AUC0-24, median, N = 20
  Kp: 0.0683

## dalbavancin
[2]
  reported ELF penetration: 36%

## oritavancin
[2]; in vivo
  reported ELF penetration ratio: 459%

## vancomycin
[2]; healthy volunteers with outliers removed
  ELF penetration: 41%–56
